Measured values taken from US20050070554A1, “Substituted heterocyclic compounds and methods of use” (Amgen Inc., priority 2003, published 2005).

Each molecule was assayed against T1, LCK (Homo sapiens, UniProt P06239) (assay: LCK-Homogeneous Time Resolved Fluorescent (HTRF) Kinase Assay). Conditions: read-out: activity in the LCK-HTRF Kinase Assay.
T1 construct: LCK KD GST (225-509); GST
Assay type: biochemical
Description: LCK-Homogeneous Time Resolved Fluorescent (HTRF) Kinase Assay:
The LCK HTRF assay begins with LCK in the presence of ATP phosphorylating the biotinylated peptide Gastrin. The reaction incubates for 90 min. To quench the assay detection reagents are added which both stop the reaction by diluting out the enzyme and chelating the metals due to the presence of EDTA. Once the detection reagents are added the assay incubates for 30 min to allow for equilibration of the detection reagents.
Buffer conditions are as follows: 50 mM HEPES pH 7.5, 50 mM NaCl, 20 mM MgCl, 5 mM MnCl, 2 mM DTT, 0.05% BSA.
The assay is quenched and stopped with 160 μL of detection reagent. Detection reagents are as follows: Buffer made of 50 mM Tris, pH 7.5, 100 mM NaCl, 3 mM EDTA, 0.05% BSA, 0.1% Tween20.
The assay plate is read in either a Discovery or a RubyStar.

T1 sequence (P06239 225-509): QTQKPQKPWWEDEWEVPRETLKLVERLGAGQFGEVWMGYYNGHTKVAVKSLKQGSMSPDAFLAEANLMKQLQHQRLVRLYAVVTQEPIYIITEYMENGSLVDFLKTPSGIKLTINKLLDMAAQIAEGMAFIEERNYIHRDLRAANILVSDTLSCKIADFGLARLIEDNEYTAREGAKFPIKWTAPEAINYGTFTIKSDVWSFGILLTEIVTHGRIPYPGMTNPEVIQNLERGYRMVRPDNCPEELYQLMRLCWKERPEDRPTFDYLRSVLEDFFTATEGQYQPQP

IC50, < 1000 nM:
Cc1cccc(C)c1-n1c(=O)c2cnc(Nc3cccc(N4CCN(C)CC4)c3)nc2n2c3ccccc3nc12 [No. 48, 6-(2,6-dimethylphenyl)-2-((3-(4-methyl-1-piperazinyl)phenyl)amino)pyrimido[5′,4′:5,6]-pyrimido[1,2-a]benzimidazol-5(6H)-one]
Cc1cccc(C)c1-n1c(=O)c2cnc(Nc3ccc(N4CCN(CCCN(C)C)CC4)cc3)nc2n2c3ccccc3nc12 [No. 49, 2-((4-(4-(3-(dimethylamino)propyl)-1-piperazinyl)-phenyl)amino)-6-(2,6-dimethylphenyl)-pyrimido[5′,4′:5,6]pyrimido[1,2-a]benzimidazol-5(6H)-one]
Cc1cccc(C)c1-n1c(=O)c2cnc(Nc3ccc(N4CCN(CC(N)=O)CC4)cc3)nc2n2c3ccccc3nc12 [No. 50, 2-(4-(4-((6-(2,6-dimethylphenyl)-5-oxo-5,6-dihydropyrimido[5′,4′:5,6]pyrimido[1,2-a]-benzimidazol-2-yl)amino)phenyl)-1-piperazinyl)-acetamide]
Cc1cccc(C)c1-n1c(=O)c2cnc(Nc3ccc(N4CCN(Cc5cccc(Cl)c5)CC4)cc3)nc2n2c3ccccc3nc12 [No. 51, 2-((4-(4-((3-chlorophenyl)methyl)-1-piperazinyl)-phenyl)amino)-6-(2,6-dimethylphenyl)-pyrimido[5′,4′:5,6]pyrimido[1,2-a]benzimidazol-5(6H)-one]
COc1cccc(CN2CCN(c3ccc(Nc4ncc5c(=O)n(-c6c(C)cccc6C)c6nc7ccccc7n6c5n4)cc3)CC2)c1 [No. 52, 6-(2,6-dimethylphenyl)-2-((4-(4-((3-(methyloxy)-phenyl)methyl)-1-piperazinyl)phenyl)amino)-pyrimido[5′,4′:5,6]pyrimido[1,2-a]benzimidazol-5(6H)-one]
Cc1cccc(C)c1-n1c(=O)c2cnc(Nc3ccc(N4CCN(Cc5cccc(C#N)c5)CC4)cc3)nc2n2c3ccccc3nc12 [No. 53, 3-((4-(4-((6-(2,6-dimethylphenyl)-5-oxo-5,6-dihydropyrimido[5′,4′:5,6]pyrimido[1,2-a]-benzimidazol-2-yl)amino)phenyl)-1-piperazinyl)-methyl)benzonitrile]
COCCN1CCN(c2ccc(Nc3ncc4c(=O)n(-c5c(C)cccc5C)c5nc6ccccc6n5c4n3)cc2)CC1 [No. 54, 6-(2,6-dimethylphenyl)-2-((4-(4-(2-(methyloxy)ethyl)-1-piperazinyl)phenyl)amino)pyrimido[5′,4′:5,6]-pyrimido[1,2-a]benzimidazol-5(6H)-one]
COc1cc(Nc2ncc3c(=O)n(-c4c(C)cccc4C)c4nc5ccccc5n4c3n2)ccc1OC[C@H]1CCCN1 [No. 55, 6-(2,6-dimethylphenyl)-2-((3-(methyloxy)4-(((2R)-2-pyrrolidinylmethyl)oxy)phenyl)amino)-pyrimido[5′,4′:5,6]pyrimido[1,2-a]benzimidazol-5(6H)-one]
Cc1cccc(C)c1-n1c(=O)c2cnc(Nc3ccc(OCCNC(C)C)cc3)nc2n2c3ccccc3nc12 [No. 56, 6-(2,6-dimethylphenyl)-2-((4-((2-((1-methylethyl)-amino)ethyl)oxy)phenyl)amino)pyrimido[5′,4′:5,6]-pyrimido[1,2-a]benzimidazol-5(6H)-one]
COc1ccc(-n2c(=O)c3cnc(Nc4ccc(N5CCN(C)CC5)cc4)nc3n3c4ccccc4nc23)cc1 [No. 57, 6-(4-(methyloxy)phenyl)-2-((4-(4-methyl-1-piperazinyl)phenyl)amino)pyrimido[5′,4′:5,6]-pyrimido[1,2-a]benzimidazol-5(6H)-one]
Cc1cccc(C)c1N1C(=O)c2cnc(Nc3ccc(N4CCN(C)CC4)cc3)nc2N2CCN=C21 [No. 58, 6-(2,6-dimethylphenyl)-2-((4-(4-methyl-1-piperazinyl)phenyl)amino)-8,9-dihydroimidazo[1,2-a]pyrimido[5,4-e]pyrimidin-5(6H)-one]
Cc1cccc(C)c1-n1c(=O)c2cnc(Nc3ccc(OCCN4CCCCC4)c(Cl)c3)nc2n2c3ccccc3nc12 [No. 59, 2-((3-chloro-4-((2-(1-piperidinyl)ethyl)oxy)phenyl)-amino)-6-(2,6-dimethylphenyl)pyrimido[5′,4′:5,6]-pyrimido[1,2-a]benzimidazol-5(6H)-one]
C[C@@H](c1ccccc1)n1c(=O)c2cnc(Nc3ccc(N4CCN(C)CC4)cc3)nc2n2c3ccccc3nc12 [No. 60, 2-((4-(4-methyl-1-piperazinyl)phenyl)amino)-6-((1S)-1-phenylethyl)pyrimido[5′,4′:5,6]pyrimido[1,2-a]-benzimidazol-5(6H)-one]
Cc1cccc(C)c1-n1c(=O)c2cnc(Nc3ccc(OCCN4CCN(C(C)C)CC4)c(F)c3)nc2n2c3ccccc3nc12 [No. 61, 6-(2,6-dimethylphenyl)-2-((3-fluoro-4-((2-(4-(1-methylethyl)-1-piperazinyl)ethyl)oxy)phenyl)amino)-pyrimido[5′,4′:5,6]pyrimido[1,2-a]benzimidazol-5(6H)-one]
COc1cc(Nc2ncc3c(=O)n(-c4c(C)cccc4C)c4nc5ccccc5n4c3n2)ccc1OCCN1CCN(C(C)C)CC1 [No. 62, 6-(2,6-dimethylphenyl)-2-((4-((2-(4-(1-methylethyl)-1-piperazinyl)ethyl)oxy)-3-(methyloxy)phenyl)-amino)pyrimido[5′,4′:5,6]pyrimido[1,2-a]-benzimidazol-5(6H)-one]
COc1cc(Nc2ncc3c(=O)n(-c4c(C)cccc4C)c4nc5ccccc5n4c3n2)ccc1OCCCN1CCN(C(C)C)CC1 [No. 63, 6-(2,6-dimethylphenyl)-2-((4-((3-(4-(1-methylethyl)-1-piperazinyl)propyl)oxy)-3-(methyloxy)phenyl)-amino)pyrimido[5′,4′:5,6]pyrimido[1,2-a]-benzimidazol-5(6H)-one]
CCN(CC)CCN(C)C(=O)c1ccc(Nc2ncc3c(=O)n(-c4c(C)cccc4C)c4nc5ccccc5n4c3n2)cc1 [No. 64, N-(2-(diethylamino)ethyl)-4-((6-(2,6-dimethylphenyl)-5-oxo-5,6-dihydropyrimido[5′,4′:5,6]pyrimido[1,2-a]-benzimidazol-2-yl)amino)-N-methylbenzamide]
Cc1cccc(C)c1-n1c(=O)c2cnc(Nc3cccc(C(=O)NCCN(C)C)c3)nc2n2c3ccccc3nc12 [No. 65, N-(2-(dimethylamino)ethyl)-3-((6-(2,6-dimethylphenyl)-5-oxo-5,6-dihydropyrimido[5′,4′:5,6]pyrimido[1,2-a]-benzimidazol-2-yl)amino)benzamide]
CCN(CC)CCN(C)C(=O)c1cccc(Nc2ncc3c(=O)n(-c4c(C)cccc4C)c4nc5ccccc5n4c3n2)c1 [No. 66, N-(2-(diethylamino)ethyl)-3-((6-(2,6-dimethylphenyl)-5-oxo-5,6-dihydropyrimido[5′,4′:5,6]pyrimido[1,2-a]-benzimidazol-2-yl)amino)-N-methylbenzamide]
